Measured values as given in patent publication US20260327214A1, “1,3,4-OXADIAZOLE DERIVATIVE COMPOUNDS AS HISTONE DEACETYLASE 6 INHIBITOR, AND USES THEREOF” (CHONG KUN DANG PHARMACEUTICAL CORP., priority 2022, published 2026).

How the values were obtained:
human recombinant HDAC1 = target: T1, human recombinant HDAC1 (Homo sapiens, UniProt Q13547); assay: HDAC1 enzyme activity inhibition test (HDAC Fluorometric Drug Discovery Kit); format: biochemical; conditions: 30° C., 60 minutes, 10 μM substrate
T1 construct: purchased Enzo Life Science BML-SE456
T1 sequence (Q13547 whole entry): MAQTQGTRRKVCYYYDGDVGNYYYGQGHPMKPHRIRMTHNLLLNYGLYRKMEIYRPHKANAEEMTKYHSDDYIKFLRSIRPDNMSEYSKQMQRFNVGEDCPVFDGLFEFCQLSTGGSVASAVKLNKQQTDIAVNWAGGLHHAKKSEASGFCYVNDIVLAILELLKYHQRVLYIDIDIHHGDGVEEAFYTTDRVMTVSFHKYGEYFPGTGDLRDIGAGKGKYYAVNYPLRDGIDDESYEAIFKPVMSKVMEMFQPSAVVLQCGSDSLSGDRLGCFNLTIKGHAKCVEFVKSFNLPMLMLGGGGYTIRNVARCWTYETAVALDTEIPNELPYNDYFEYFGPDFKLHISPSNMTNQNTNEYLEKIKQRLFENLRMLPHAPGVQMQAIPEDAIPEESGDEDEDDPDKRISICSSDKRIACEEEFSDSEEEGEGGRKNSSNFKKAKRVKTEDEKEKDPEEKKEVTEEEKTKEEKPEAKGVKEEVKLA
Procedure: (§1) The following experiment was conducted to confirm the HDAC6 selectivity of the compound represented by Chemical Formula I of the present invention through the HDAC1 and HDAC6 enzyme activity inhibition test.
(§2) HDAC enzyme activity was measured using HDAC Fluorometric Drug Discovery Kit (BML-AK511, 516) manufactured by Enzo Life Science. For the HDAC1 enzyme activity test, human recombinant HDAC1 (BML-SE456) was used as an enzyme source and Fluor de Lys-®-″SIRT1 (BNL-KI177) was used as a substrate. The 5-fold diluted compound was dispensed in a 96-well plate, 0.3 μg of enzyme and 10 μM substrate were added to each well and reacted at 30° C. for 60 minutes, and Fluor de Lys® Developer II(BML-KI176) was added and reacted for 30 minutes to complete the reaction. Then, the fluorescence value (Ex 360, Em 460) was measured using a multiplate reader (Flexstation 3, Molecular Device). The HDAC6 enzyme was tested using the same protocol as the HDAC1 enzyme activity test method employing human recombinant HDAC6 (382180) from Calbiochem. For the final result, each […] value was calculated using the GraphPad Prism 4.0 program.

human recombinant HDAC6 = target: T2, human recombinant HDAC6 (Homo sapiens, UniProt Q9UBN7); assay: HDAC6 enzyme activity inhibition test (HDAC Fluorometric Drug Discovery Kit); format: biochemical; conditions: for HDAC6 selectivity (fold): HDAC6 over HDAC1; for IC50: human recombinant HDAC6, same protocol as HDAC1
T2 construct: purchased Calbiochem 382180
T2 sequence (Q9UBN7 1-1215): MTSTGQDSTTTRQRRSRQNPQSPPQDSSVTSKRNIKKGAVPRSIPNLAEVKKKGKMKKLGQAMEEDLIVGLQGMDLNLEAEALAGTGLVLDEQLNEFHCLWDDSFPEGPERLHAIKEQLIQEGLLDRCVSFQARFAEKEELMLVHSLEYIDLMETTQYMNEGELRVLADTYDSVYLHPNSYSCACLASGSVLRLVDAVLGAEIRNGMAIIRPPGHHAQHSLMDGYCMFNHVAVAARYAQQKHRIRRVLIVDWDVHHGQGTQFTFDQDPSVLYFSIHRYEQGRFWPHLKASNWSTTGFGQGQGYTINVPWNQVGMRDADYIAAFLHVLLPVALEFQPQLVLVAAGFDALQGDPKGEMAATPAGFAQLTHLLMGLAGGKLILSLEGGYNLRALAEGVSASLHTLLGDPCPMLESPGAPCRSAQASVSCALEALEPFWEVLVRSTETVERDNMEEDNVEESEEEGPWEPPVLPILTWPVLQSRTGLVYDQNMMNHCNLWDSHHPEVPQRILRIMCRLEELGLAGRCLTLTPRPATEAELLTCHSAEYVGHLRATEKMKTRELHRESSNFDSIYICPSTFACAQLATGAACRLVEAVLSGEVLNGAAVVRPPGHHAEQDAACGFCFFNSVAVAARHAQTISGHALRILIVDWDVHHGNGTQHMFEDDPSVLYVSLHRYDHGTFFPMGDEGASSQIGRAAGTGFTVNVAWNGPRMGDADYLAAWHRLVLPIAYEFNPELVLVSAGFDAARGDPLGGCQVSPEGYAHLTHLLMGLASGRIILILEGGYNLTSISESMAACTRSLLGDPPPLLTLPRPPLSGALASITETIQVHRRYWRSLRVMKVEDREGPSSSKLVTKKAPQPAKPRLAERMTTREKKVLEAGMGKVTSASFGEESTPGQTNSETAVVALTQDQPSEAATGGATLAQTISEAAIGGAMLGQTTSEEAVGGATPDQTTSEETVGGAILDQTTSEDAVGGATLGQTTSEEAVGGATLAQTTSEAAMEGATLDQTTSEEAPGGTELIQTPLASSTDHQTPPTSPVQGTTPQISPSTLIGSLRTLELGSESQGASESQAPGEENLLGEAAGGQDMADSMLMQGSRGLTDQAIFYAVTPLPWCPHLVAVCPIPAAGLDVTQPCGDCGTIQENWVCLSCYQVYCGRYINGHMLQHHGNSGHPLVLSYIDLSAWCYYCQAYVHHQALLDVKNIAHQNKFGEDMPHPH
Procedure: as §1, §2

Row | SMILES | IC50 (human recombinant HDAC1) | HDAC6 selectivity (fold) (human recombinant HDAC6) | IC50 (human recombinant HDAC6)
1 | CC(C)N1CCN(c2ccc(-c3nn(Cc4ccc(-c5nnc(C(F)F)o5)cn4)c(=O)o3)cc2)CC1 [Compound 22, 3-[[5-[5-(difluoromethyl)-1,3,4-oxadiazol-2-yl]-2-pyridyl]methyl]-5-[4-(4-isopropylpiperazin-1-yl)phenyl]-1,3,4-oxadiazol-2-one] | > 50 µM | 479 fold | 0.104 µM
2 | O=c1oc(-c2ccc(N3CCNCC3)cc2F)nn1Cc1ccc(-c2nnc(C(F)F)o2)cn1 [Compound 23, 3-[[5-[5-(difluoromethyl)-1,3,4-oxadiazol-2-yl]-2-pyridyl]methyl]-5-(2-fluoro-4-piperazin-1-yl-phenyl)-1,3,4-oxadiazol-2-one] | > 50 µM | 942 fold | 0.0531 µM
3 | CN1CCN(c2ccc(-c3nn(Cc4ccc(-c5nnc(C(F)F)o5)cn4)c(=O)o3)c(F)c2)CC1 [Compound 24, 3-[[5-[5-(difluoromethyl)-1,3,4-oxadiazol-2-yl]-2-pyridyl]methyl]-5-[2-fluoro-4-(4-methylpiperazin-1-yl)phenyl]-1,3,4-oxadiazol-2-one] | > 50 µM | 487 fold | 0.103 µM
4 | CC(C)N1CCN(c2ccc(-c3nn(Cc4ccc(-c5nnc(C(F)F)o5)cn4)c(=O)o3)c(F)c2)CC1 [Compound 25, 3-[[5-[5-(difluoromethyl)-1,3,4-oxadiazol-2-yl]-2-pyridyl]methyl]-5-[2-fluoro-4-(4-isopropylpiperazin-1-yl)phenyl]-1,3,4-oxadiazol-2-one] | > 50 µM | 642 fold | 0.0779 µM
5 | O=c1oc(-c2cccc(C3CCN(C4COC4)CC3)c2F)nn1Cc1ccc(-c2nnc(C(F)F)o2)cn1 [Compound 26, 3-[[5-[5-(difluoromethyl)-1,3,4-oxadiazol-2-yl]-2-pyridyl]methyl]-5-[2-fluoro-3-[1-(oxetan-3-yl)-4-piperidyl]phenyl]-1,3,4-oxadiazol-2-one] | > 50 µM | 503 fold | 0.0994 µM
6 | CN1CC(N2CCC(c3cccc(-c4nn(Cc5ccc(-c6nnc(C(F)F)o6)cn5)c(=O)o4)c3F)CC2)C1 [Compound 27, 3-[[5-[5-(difluoromethyl)-1,3,4-oxadiazol-2-yl]-2-pyridyl]methyl]-5-[2-fluoro-3-[1-(1-methylazetidin-3-yl)-4-piperidyl]phenyl]-1,3,4-oxadiazol-2-one] | > 50 µM | 420 fold | 0.119 µM
7 | CC(=O)N1CC(N2CCC(c3cccc(-c4nn(Cc5ccc(-c6nnc(C(F)F)o6)cn5)c(=O)o4)c3F)CC2)C1 [Compound 28, 5-[3-[1-(1-acetylazetidine-3-yl)-4-piperidyl]-2-fluoro-phenyl]-3-[[5-[5-(difluoromethyl)-1,3,4-oxadiazol-2-yl]-2-pyridyl]methyl]-1,3,4-oxadiazol-2-one] | > 50 µM | 626 fold | 0.0799 µM
8 | CN1CCC(c2ccc(-c3nn(Cc4ccc(-c5nnc(C(F)F)o5)cn4)c(=O)o3)cc2)CC1 [Compound 29, 3-[[5-[5-(difluoromethyl)-1,3,4-oxadiazol-2-yl]-2-pyridyl]methyl]-5-[4-(1-methyl-4-piperidyl)phenyl]-1,3,4-oxadiazol-2-one] | > 50 µM | 745 fold | 0.0671 µM

Further lines, results first:

Row | IC50 (human recombinant HDAC1) | HDAC6 selectivity (fold) (human recombinant HDAC6) | IC50 (human recombinant HDAC6) | SMILES
9 | > 50 µM | 518 fold | 0.0965 µM | CC(C)N1CCC(c2ccc(-c3nn(Cc4ccc(-c5nnc(C(F)F)o5)cn4)c(=O)o3)cc2)CC1 [Compound 30, 3-[[5-[5-(difluoromethyl)-1,3,4-oxadiazol-2-yl]-2-pyridyl]methyl]-5-[4-(1-isopropyl-4-piperidyl)phenyl]-1,3,4-oxadiazol-2-one]
10 | > 50 µM | 643 fold | 0.0778 µM | Cn1ccc2ccc(-c3nn(Cc4ccc(-c5nnc(C(F)F)o5)cn4)c(=O)o3)cc21 [Compound 31, 3-[[5-[5-(difluoromethyl)-1,3,4-oxadiazol-2-yl]-2-pyridyl]methyl]-5-(1-methylindol-6-yl)-1,3,4-oxadiazol-2-one]
11 | > 50 µM | 774 fold | 0.0646 µM | Cn1ccc2cc(-c3nn(Cc4ccc(-c5nnc(C(F)F)o5)cn4)c(=O)o3)cnc21 [Compound 32, 3-[[5-[5-(difluoromethyl)-1,3,4-oxadiazol-2-yl]-2-pyridyl]methyl]-5-(1-methylpyrrolo[2,3-b]pyridin-5-yl)-1,3,4-oxadiazol-2-one]
12 | > 50 µM | 1506 fold | 0.0332 µM | O=c1oc(-c2ccc3cc[nH]c3c2)nn1Cc1ccc(-c2nnc(C(F)F)o2)cn1 [Compound 33, 3-[[5-[5-(difluoromethyl)-1,3,4-oxadiazol-2-yl]-2-pyridyl]methyl]-5-(1H-indole-6-yl)-1,3,4-oxadiazol-2-one]
13 | > 50 µM | 1695 fold | 0.0295 µM | O=c1oc(-c2cccc3[nH]ccc23)nn1Cc1ccc(-c2nnc(C(F)F)o2)cn1 [Compound 34, 3-[[5-[5-(difluoromethyl)-1,3,4-oxadiazol-2-yl]-2-pyridyl]methyl]-5-(1H-indol-4-yl)-1,3,4-oxadiazol-2-one]
14 | > 50 µM | 643 fold | 0.0778 µM | O=c1oc(-c2cccc3[nH]ccc23)nn1Cc1ncc(-c2nnc(C(F)F)o2)cc1F [Compound 35, 3-[[5-[5-(difluoromethyl)-1,3,4-oxadiazol-2-yl]-3-fluoro-2-pyridyl]methyl]-5-(1H-indol-4-yl)-1,3,4-oxadiazol-2-one]
15 | > 50 µM | 640 fold | 0.0781 µM | O=c1oc(-c2cccc(N3CCNCC3)c2)nn1Cc1ccc(-c2nnc(C(F)F)o2)cn1 [Compound 36, 3-[[5-[5-(difluoromethyl)-1,3,4-oxadiazol-2-yl]-2-pyridyl]methyl]-5-(3-piperazin-1-ylphenyl)-1,3,4-oxadiazol-2-one]
16 | > 50 µM | 512 fold | 0.0977 µM | CN1CCN(c2cccc(-c3nn(Cc4ccc(-c5nnc(C(F)F)o5)cn4)c(=O)o3)c2)CC1 [Compound 37, 3-[[5-[5-(difluoromethyl)-1,3,4-oxadiazol-2-yl]-2-pyridyl]methyl]-5-[3-(4-methylpiperazin-1-yl)phenyl]-1,3,4-oxadiazol-2-one]
17 | > 50 µM | 988 fold | 0.0506 µM | CC(C)N1CCN(c2cccc(-c3nn(Cc4ccc(-c5nnc(C(F)F)o5)cn4)c(=O)o3)c2)CC1 [Compound 38, 3-[[5-[5-(difluoromethyl)-1,3,4-oxadiazol-2-yl]-2-pyridyl]methyl]-5-[3-(4-isopropylpiperazin-1-yl)phenyl]-1,3,4-oxadiazol-2-one]
18 | > 50 µM | 605 fold | 0.0827 µM | O=c1oc(-c2cccc(N3CCN(C4CCC4)CC3)c2)nn1Cc1ccc(-c2nnc(C(F)F)o2)cn1 [Compound 39, 5-[3-(4-cyclobutylpiperazin-1-yl)phenyl]-3-[[5-[5-(difluoromethyl)-1,3,4-oxadiazol-2-yl]-2-pyridyl]methyl]-1,3,4-oxadiazol-2-one]
